# Tested on: non-cardiomyocyte cells of hearts post-MI
# Assay: Single cell transcriptional profiling of non-cardiomyocytes post-MI
# Assay type: in vivo, mice
# Method: Isolation of cardiac cells for single cell transcription profiling. Mice were placed under the surgical plane of anesthesia before cervical dislocation. The hearts were removed and cells were isolated by Langendorff retrograde perfusion of calcium-free pH 7.4 Tyrodes solution (130 mM NaCl, […], 0.5 mM MgCl, 0.33 mM NaH2PO4, 0.25 mm HEPES, 22 mM glucose) with collagenase, 1 mg/mL for 15 minutes. The hearts were then removed from the apparatus, and finely minced in the same Tyrodes buffer with 15 mg/mL bovine serum albumin (BSA) before trituration with a glass pipette. Cardiomyocytes were then pelleted by differential centrifugation, 300 RPM for 3 minutes. The supernatant containing the noncardiomyocyte population of cells was then filtered through a 70 micron filter and pelleted at 750 G, and resuspended in 1.1 mL 2% fetal bovine serum (FBS) in phosphate buffered saline (PBS). 0.1 mL was removed for the “no stain control” for fluorescence-activated cell sorting (FACS). The other 1 mL was incubated with 4 ug/mL Calcein Blue and 10 microM DyeCycle Ruby and incubated at 37° C. for 10 minutes. The cells were then spun down at 600G, and resuspended in 0.5 mL 2% FBS/PBS containing Sytox Green (30 nM). […] The cells were then pelleted and resuspended in 100 uL 0.4% FBS in PBS, counted, and then flowed through the 10×Genomics Chromium system for single cell transcriptomic profiling.
# Isolation of cardiac cells. […] Then, 0.1 mL of the mixture was removed for the “no stain control” for fluorescence-activated cell sorting (FACS). […] The cells were then pelleted and resuspended in 100 μL 0.4% FBS in PBS, counted, and passed through the 10× Genomics Chromium system.
# Single-cell RNA-sequencing. […] To identify cell clusters and differentially expressed genes, the Cell Ranger results were analyzed with Seurat suite version 3.0.0 implemented in R (version 3.4.3). Cells with <200 or >5,000 unique genes expressed or >25% of reads mapping to mitochondria were removed as quality control measure. […]
smiles,measurement,setting,value
CCC1C/C(=C\c2cccnc2)C(=O)/C(=C/c2cccnc2)C1 (stereo not drawn) [MCB-613],endothelial cell growth,10 weeks post-MI,stimulates endothelial cell growth of two distinct endothelial cell populations
same,changes in non-cardiomyocyte cell number,12 weeks post-MI,"macrophage cluster 1 and B lymphocytes decreased in number while epicardial cells, NK/T lymphocytes, fibroblasts, and endothelial cells, including lymphatic cells, were increased in cell number"
same,granulocyte functions (gene set enrichment),12 weeks post-MI,suppresses inflammatory granulocyte functions

# Reference: patent publication US12338229B2, “Small molecule stimulators of steroid receptor coactivator-3 and methods of their use as cardioprotective and/or vascular regenerative agents” (BAYLOR COLLEGE OF MEDICINE, priority 2018, dated 2025)
